Like-named read-outs stand apart in the source and are kept apart here. Positions of bridges follow the written chain, without caps; N, C: chain ends. Residues, ends and D or L forms follow the SMILES beside them.
Target: hNav1.3 (Homo sapiens, UniProt Q9NY46)
Assay: cell-based
Details: for IC50: IonWorks Quattro, read-out: IWQ Use Nav1.3
[1] = use-dependent protocol, hNav1.3

hNav1.3, sequence (Q9NY46 whole entry, looked up): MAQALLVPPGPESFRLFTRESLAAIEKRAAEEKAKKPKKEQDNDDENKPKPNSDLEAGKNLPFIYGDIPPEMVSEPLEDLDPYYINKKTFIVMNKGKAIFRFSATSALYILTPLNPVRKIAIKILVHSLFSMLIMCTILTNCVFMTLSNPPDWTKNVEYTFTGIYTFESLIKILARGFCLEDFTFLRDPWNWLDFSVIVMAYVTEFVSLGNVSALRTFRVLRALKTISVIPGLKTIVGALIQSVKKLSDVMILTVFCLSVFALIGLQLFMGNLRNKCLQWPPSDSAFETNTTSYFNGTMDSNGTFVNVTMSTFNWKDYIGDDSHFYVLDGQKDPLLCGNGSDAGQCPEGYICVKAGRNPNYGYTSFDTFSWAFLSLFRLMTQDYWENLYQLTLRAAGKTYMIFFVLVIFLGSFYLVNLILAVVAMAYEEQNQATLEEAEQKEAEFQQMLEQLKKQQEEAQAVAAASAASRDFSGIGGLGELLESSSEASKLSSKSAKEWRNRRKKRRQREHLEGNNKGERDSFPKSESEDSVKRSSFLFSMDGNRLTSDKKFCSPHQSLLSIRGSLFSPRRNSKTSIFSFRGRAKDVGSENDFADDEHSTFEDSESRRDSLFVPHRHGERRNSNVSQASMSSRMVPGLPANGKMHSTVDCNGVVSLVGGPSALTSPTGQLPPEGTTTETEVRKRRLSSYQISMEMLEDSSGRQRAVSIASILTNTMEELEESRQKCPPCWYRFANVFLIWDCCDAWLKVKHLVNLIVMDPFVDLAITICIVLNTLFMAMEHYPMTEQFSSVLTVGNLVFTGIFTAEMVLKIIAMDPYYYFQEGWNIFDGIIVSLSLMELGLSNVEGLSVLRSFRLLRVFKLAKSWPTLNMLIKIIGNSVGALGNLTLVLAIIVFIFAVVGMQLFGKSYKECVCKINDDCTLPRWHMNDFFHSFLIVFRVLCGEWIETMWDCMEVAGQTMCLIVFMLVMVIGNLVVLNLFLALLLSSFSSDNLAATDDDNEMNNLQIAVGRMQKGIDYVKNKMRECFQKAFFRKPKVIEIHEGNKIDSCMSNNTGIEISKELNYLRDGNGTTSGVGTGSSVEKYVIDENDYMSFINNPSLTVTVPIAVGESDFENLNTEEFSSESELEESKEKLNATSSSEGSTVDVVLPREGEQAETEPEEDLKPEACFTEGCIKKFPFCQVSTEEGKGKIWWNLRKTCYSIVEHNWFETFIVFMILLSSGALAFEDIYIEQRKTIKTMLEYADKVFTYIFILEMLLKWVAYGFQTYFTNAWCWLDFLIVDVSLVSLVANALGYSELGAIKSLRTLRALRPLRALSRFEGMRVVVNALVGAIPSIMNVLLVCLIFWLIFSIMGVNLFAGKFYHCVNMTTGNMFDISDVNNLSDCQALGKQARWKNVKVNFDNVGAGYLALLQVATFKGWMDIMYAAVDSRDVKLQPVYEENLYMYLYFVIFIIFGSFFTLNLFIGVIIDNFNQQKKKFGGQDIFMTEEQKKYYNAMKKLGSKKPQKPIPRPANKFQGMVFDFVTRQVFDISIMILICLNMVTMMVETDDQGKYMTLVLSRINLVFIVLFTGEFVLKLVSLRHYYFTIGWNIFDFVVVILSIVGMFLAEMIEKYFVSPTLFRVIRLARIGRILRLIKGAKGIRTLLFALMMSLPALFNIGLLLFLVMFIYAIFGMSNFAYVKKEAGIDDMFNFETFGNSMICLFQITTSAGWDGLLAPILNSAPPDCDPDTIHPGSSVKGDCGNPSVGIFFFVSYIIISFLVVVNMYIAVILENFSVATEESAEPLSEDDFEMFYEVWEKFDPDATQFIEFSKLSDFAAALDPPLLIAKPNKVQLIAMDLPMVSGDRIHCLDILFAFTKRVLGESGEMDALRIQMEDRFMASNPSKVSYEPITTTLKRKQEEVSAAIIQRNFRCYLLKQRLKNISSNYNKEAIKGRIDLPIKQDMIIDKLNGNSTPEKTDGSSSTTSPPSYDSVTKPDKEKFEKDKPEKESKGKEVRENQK

Structure (SMILES): CC[C@H](C)[C@@H]1NC(=O)[C@@H]2CSSC[C@@H]3NC(=O)[C@H](C(C)C)NC(=O)[C@H](CC(C)C)NC(=O)[C@H](CC(N)=O)NC(=O)[C@@H]4CCCN4C(=O)[C@H](CCCNC(=N)N)NC(=O)[C@H](CSSC[C@H](NC(=O)[C@@H](N)CC(=O)O)C(=O)N[C@@H](CC(C)C)C(=O)NCC(=O)N[C@@H](Cc4ccccc4)C(=O)N[C@@H](CCSC)C(=O)N[C@@H](CCCNC(=N)N)C(=O)N[C@@H](CCCCN)C(=O)N2)NC(=O)[C@H](CSSC[C@@H](C(=O)N[C@@H](CCCCN)C(=O)N[C@@H](Cc2ccc(O)cc2)C(=O)N[C@H](C(=O)N[C@@H](Cc2ccccc2)C(N)=O)C(C)C)NC(=O)[C@H](Cc2c[nH]c4ccccc24)NC(=O)[C@H](CC(=O)O)NC(=O)[C@H](Cc2cnc[nH]2)NC(=O)[C@H]([C@@H](C)O)NC(=O)[C@H](CCCNC(=N)N)NC(=O)[C@H](CO)NC3=O)NC(=O)[C@H](CCCCN)NC(=O)[C@H](CC(=O)O)NC(=O)[C@H](CC(N)=O)NC(=O)[C@H](CC(=O)O)NC(=O)[C@@H]2CCCN2C1=O [SEQ ID NO: 750, [Asp28]GpTx-1] (H-DCLGFMRKCIPDNDKCCRPNLVCSRTHDWCKYVF-NH2; disulfide 2-17, 9-23, 16-30)
- IC50 (use-dependent block, hNav1.3): 770 nM

Structure (SMILES): CSCC[C@@H]1NC(=O)[C@H](Cc2ccccc2)NC(=O)CNC(=O)[C@H](CC(C)C)NC(=O)[C@@H](NC(=O)[C@@H](N)CC(=O)O)CSSC[C@@H]2NC(=O)[C@@H]3CSSC[C@@H](C(=O)N[C@@H](CCCCN)C(=O)N[C@@H](Cc4ccc(O)cc4)C(=O)N[C@H](C(=O)N[C@@H](Cc4ccccc4)C(N)=O)C(C)C)NC(=O)[C@H](Cc4c[nH]c5ccccc45)NC(=O)[C@H](CCCCN)NC(=O)[C@H](Cc4cnc[nH]4)NC(=O)[C@H]([C@@H](C)O)NC(=O)[C@H](CCCNC(=N)N)NC(=O)[C@H](CO)NC(=O)[C@H](CSSC[C@H](NC(=O)[C@H](CCCCN)NC(=O)[C@H](CCCNC(=N)N)NC1=O)C(=O)N[C@@H](CCSC)C(=O)N1CCC[C@H]1C(=O)N[C@@H](CC(=O)O)C(=O)N[C@@H](CC(N)=O)C(=O)N[C@@H](CC(=O)O)C(=O)N[C@@H](CCCCN)C(=O)N3)NC(=O)[C@H](C(C)C)NC(=O)[C@H](CC(C)C)NC(=O)[C@H](CC(N)=O)NC(=O)[C@@H]1CCCN1C(=O)[C@H](CCCNC(=N)N)NC2=O [compound 307] (H-DCLGFMRKCMPDNDKCCRPNLVCSRTHKWCKYVF-NH2; disulfide 2-17, 9-23, 16-30)
- IC50 (Use): 100 nM

Structure (SMILES): CSCC[C@@H]1NC(=O)[C@H](Cc2ccccc2)NC(=O)CNC(=O)[C@H](CC(C)C)NC(=O)[C@@H](NC(=O)[C@@H](N)CC(=O)O)CSSC[C@@H]2NC(=O)[C@@H]3CSSC[C@@H](C(=O)N[C@@H](CCCCN)C(=O)N[C@@H](Cc4ccc(O)cc4)C(=O)N[C@H](C(=O)N[C@@H](Cc4ccccc4)C(N)=O)C(C)C)NC(=O)[C@H](Cc4c[nH]c5ccccc45)NC(=O)[C@H](CCCCN)NC(=O)[C@H](Cc4cnc[nH]4)NC(=O)[C@H]([C@@H](C)O)NC(=O)[C@H](CCCNC(=N)N)NC(=O)[C@H](CO)NC(=O)[C@H](CSSC[C@H](NC(=O)[C@H](CCCCN)NC(=O)[C@H](CCCNC(=N)N)NC1=O)C(=O)N[C@@H]([C@@H](C)O)C(=O)N1CCC[C@H]1C(=O)N[C@@H](CC(=O)O)C(=O)N[C@@H](CC(N)=O)C(=O)N[C@@H](CC(=O)O)C(=O)N[C@@H](CCCCN)C(=O)N3)NC(=O)[C@H](C(C)C)NC(=O)[C@H](CC(C)C)NC(=O)[C@H](CC(N)=O)NC(=O)[C@@H]1CCCN1C(=O)[C@H](CCCNC(=N)N)NC2=O [compound 309] (H-DCLGFMRKCTPDNDKCCRPNLVCSRTHKWCKYVF-NH2; disulfide 2-17, 9-23, 16-30)
- IC50 (Use): 60 nM

Structure (SMILES): CC[C@H](C)[C@@H]1NC(=O)[C@@H]2CSSC[C@@H]3NC(=O)[C@H](C(C)C)NC(=O)[C@H](CC(C)C)NC(=O)[C@H](CC(N)=O)NC(=O)[C@@H]4CCCN4C(=O)[C@H](CCCNC(=N)N)NC(=O)[C@H](CSSC[C@H](NC(=O)[C@@H](N)CC(=O)O)C(=O)N[C@@H](CC(C)C)C(=O)NCC(=O)N[C@@H](Cc4ccccc4)C(=O)N[C@@H](Cc4ccccc4)C(=O)N[C@@H](CCCNC(=N)N)C(=O)N[C@@H](CCCCN)C(=O)N2)NC(=O)[C@H](CSSC[C@@H](C(=O)N[C@@H](CCCCN)C(=O)N[C@@H](Cc2cn(CCOCCOCCOCCOCCOCCOCCOCCOCCOCCOCCN)nn2)C(=O)N[C@H](C(=O)N[C@@H](Cc2cccc4ccccc24)C(N)=O)C(C)C)NC(=O)[C@H](Cc2c[nH]c4ccccc24)NC(=O)[C@H](CCCCN)NC(=O)[C@H](Cc2c[nH]cn2)NC(=O)[C@H]([C@@H](C)O)NC(=O)[C@H](CCCNC(=N)N)NC(=O)[C@H](CO)NC3=O)NC(=O)[C@H](CCCCN)NC(=O)[C@H](CC(=O)O)NC(=O)[C@H](CC(N)=O)NC(=O)[C@H](CC(=O)O)NC(=O)[C@@H]2CCCN2C1=O [compound 559]
- Nav1.7/Nav1.3 (ratio of IWQ Use IC50 values): 2.3

Structure (SMILES): CC[C@H](C)[C@@H]1NC(=O)[C@@H]2CSSC[C@@H]3NC(=O)[C@H](C(C)C)NC(=O)[C@H](CC(C)C)NC(=O)[C@H](CC(N)=O)NC(=O)[C@@H]4CCCN4C(=O)[C@H](CCCNC(=N)N)NC(=O)[C@H](CSSC[C@H](NC(=O)[C@@H](N)CC(=O)O)C(=O)N[C@@H](CC(C)C)C(=O)NCC(=O)N[C@@H](Cc4ccccc4)C(=O)N[C@@H](Cc4ccccc4)C(=O)N[C@@H](CCCNC(=N)N)C(=O)N[C@@H](CCCCN)C(=O)N2)NC(=O)[C@H](CSSC[C@@H](C(=O)N[C@@H](CCCCN)C(=O)N[C@@H](Cc2ccc(O)cc2)C(=O)N[C@H](C(=O)N[C@@H](Cc2ccccc2)C(=O)N[C@@H](Cc2cn(CCOCCOCCOCCOCCOCCOCCOCCOCCOCCOCCN)nn2)C(N)=O)C(C)C)NC(=O)[C@H](Cc2c[nH]c4ccccc24)NC(=O)[C@H](CCCCN)NC(=O)[C@H](Cc2c[nH]cn2)NC(=O)[C@H](CC(C)C)NC(=O)[C@H](CCCNC(=N)N)NC(=O)[C@H](CO)NC3=O)NC(=O)[C@H](CCCCN)NC(=O)[C@H](CC(=O)O)NC(=O)[C@H](CC(N)=O)NC(=O)[C@H](CC(=O)O)NC(=O)[C@@H]2CCCN2C1=O [compound 588]
- Nav1.7/Nav1.3 (ratio of IWQ Use IC50 values): 3.3

Structure (SMILES): CC[C@H](C)[C@@H]1NC(=O)[C@@H]2CSSC[C@@H]3NC(=O)[C@H](C(C)C)NC(=O)[C@H](CC(C)C)NC(=O)[C@H](CC(N)=O)NC(=O)[C@@H]4CCCN4C(=O)[C@H](CCCNC(=N)N)NC(=O)[C@H](CSSC[C@H](NC(=O)[C@@H](N)CC(=O)O)C(=O)N[C@@H](CC(C)C)C(=O)NCC(=O)N[C@H](C)C(=O)N[C@@H](CC(C)C)C(=O)N[C@@H](CCCNC(=N)N)C(=O)N[C@@H](CCCCN)C(=O)N2)NC(=O)[C@H](CSSC[C@@H](C(=O)N[C@@H](CCCCN)C(=O)N[C@@H](Cc2ccc(O)cc2)C(=O)N[C@H](C(=O)N[C@@H](Cc2ccccc2)C(N)=O)C(C)C)NC(=O)[C@H](Cc2c[nH]c4ccccc24)NC(=O)[C@H](CCCCN)NC(=O)[C@H](Cc2c[nH]cn2)NC(=O)[C@H]([C@@H](C)O)NC(=O)[C@H](CCCNC(=N)N)NC(=O)[C@H](CO)NC3=O)NC(=O)[C@H](CCCCN)NC(=O)[C@H](CC(=O)O)NC(=O)[C@H](CC(N)=O)NC(=O)[C@H](CC(=O)O)NC(=O)[C@@H]2CCCN2C1=O [compound 633]
- IC50 [1]: 11500 nM

Structure (SMILES): CC[C@H](C)[C@@H]1NC(=O)[C@@H]2CSSC[C@@H]3NC(=O)[C@H](C(C)C)NC(=O)[C@H](CC(C)C)NC(=O)[C@H](CC(N)=O)NC(=O)[C@@H]4CCCN4C(=O)[C@H](CCCNC(=N)N)NC(=O)[C@H](CSSC[C@H](NC(=O)[C@@H](N)CC(=O)O)C(=O)N[C@@H](CC(C)C)C(=O)NCC(=O)N[C@@H](Cc4ccc(OC)c(OC)c4)C(=O)N[C@@H](CCSC)C(=O)N[C@@H](CCCNC(=N)N)C(=O)N[C@@H](CCCCN)C(=O)N2)NC(=O)[C@H](CSSC[C@@H](C(=O)N[C@@H](CCCCN)C(=O)N[C@@H](Cc2ccc(O)cc2)C(=O)N[C@H](C(=O)N[C@@H](Cc2ccccc2)C(N)=O)C(C)C)NC(=O)[C@H](Cc2c[nH]c4ccccc24)NC(=O)[C@H](CCCCN)NC(=O)[C@H](Cc2c[nH]cn2)NC(=O)[C@H]([C@@H](C)O)NC(=O)[C@H](CCCNC(=N)N)NC(=O)[C@H](CO)NC3=O)NC(=O)[C@H](CCCCN)NC(=O)[C@H](CC(=O)O)NC(=O)[C@H](CC(N)=O)NC(=O)[C@H](CC(=O)O)NC(=O)[C@@H]2CCCN2C1=O [compound 652]
- Nav1.7/Nav1.3 (ratio of IWQ Use values, Nav1.7 over Nav1.3): 0.8

Structure (SMILES): CC[C@H](C)[C@@H]1NC(=O)[C@@H]2CSSC[C@@H]3NC(=O)[C@H](C(C)C)NC(=O)[C@H](CC(C)C)NC(=O)[C@H](CC(N)=O)NC(=O)[C@@H]4CCCN4C(=O)[C@H](CCCNC(=N)N)NC(=O)[C@H](CSSC[C@H](NC(=O)[C@@H](N)CC(=O)O)C(=O)N[C@@H](CC(C)C)C(=O)NCC(=O)N[C@@H](C)C(=O)N[C@@H](CC(C)C)C(=O)N[C@@H](CCCNC(=N)N)C(=O)N[C@@H](CCCCN)C(=O)N2)NC(=O)[C@H](CSSC[C@@H](C(=O)N[C@@H](CCCCN)C(=O)N[C@@H](Cc2ccc(O)cc2)C(=O)N[C@H](C(=O)N[C@@H](Cc2ccccc2)C(N)=O)C(C)C)NC(=O)[C@H](Cc2c[nH]c4ccccc24)NC(=O)[C@H](CCCCN)NC(=O)[C@H](Cc2cnc[nH]2)NC(=O)[C@H]([C@@H](C)O)NC(=O)[C@H](CCCNC(=N)N)NC(=O)[C@H](CO)NC3=O)NC(=O)[C@H](CCCCN)NC(=O)[C@H](CC(=O)O)NC(=O)[C@H](CC(N)=O)NC(=O)[C@H](CC(=O)O)NC(=O)[C@@H]2CCCN2C1=O [compound 696]
- IC50 [1]: 750 nM

Reference: patent US9340590B2 (priority 2011, dated 2016)
